# Earlier results in US20080254073A1, “Transdermal Patch Comprising Paroxetine” (IKSU PARMACEUTICAL CO., LTD., priority 2005, published 2008).
# Key:
# [1] = not given; remark: listed apart in the source
structure (smiles),measurement,setting,value
Fc1ccc([C@@H]2CCNC[C@H]2COc2ccc3c(c2)OCO3)cc1 [Paroxetine],partition coefficient of the drug using octanol-water,,169.20±17.19
same,log P,octanol-water,2.23
same,elimination half-life,"[1]; after multiple oral administration, healthy volunteers",about 24 hours
same,time to reach maximum plasma concentration of the drug,"[1]; oral administration, healthy volunteers",about five
same,influence of food or antacid on absorption,"[1]; oral, administered together with food or antacid",not influenced by food or antacid
same,difference in the area under the plasma concentration-time curve (AUC),"[1]; oral, differences among individuals",about 35 times
